# Assay results from patent US20050054673A1, “Combination of phenylcarboxylic acid amides with beta-adrenoreceptor blockers and their use for the treatment of atrial arrhythmias” (Aventis Pharma Deutschland GmbH, priority 2003, published 2005).
# Marks after values point to notes of the source that are not given here.
# System: left atrium of the pig
# Test: Refractory period in anaesthetized pigs (AERP, left atrium)
# Type: in vivo
# Details: for Effect on the refractory period (in words): single substances, Example 1 or 5 after 1 h infusion of 3 mg/kg/h; for Increase after Example 1 in ms: infusion 3 mg/kg/h, vs. control
# Procedure: Investigation of the refractory period in anaesthetized pigs
# The investigations were carried out in the anaesthetised pig as described by Knobloch et al. (Knobloch K., Brendel J., Peukert S., Rosenstein B., Busch A.-E., Wirth K.-J., “Electrophysiological and antiarrhythmic effects of the novel IKUR channel blockers, S9947 and S20951, on the left vs. right pig atrium in vivo in comparison with the IKr blockers dofetilide, azimilide, d, I-sotalol and ibutilide”, Naunyn-Schmiedeberg's Arch Pharmacol 2002, 366: 482-487). The action of beta-blockers and IKUR blockers on the refractory period of the left atrium was investigated. First, the action of the individual substances was tested, then the action of the combination of both individual substances.
# Male pigs of native German breed of age 2-3 months and weight 23-30 kg were used.
# The pigs were premedicated with 3 mL of Rompun® 2% ([…] 23.3 mg/mL=3 mg/kg; injected intramuscularly) and 6 mL of Hostaket® (ketamine 115 mg/mL=20 mg/kg; injected intramuscularly). Anesthesia was induced using an intravenous bolus injection of 5 mL of Narcoren® (pentobarbital 160 mg/mL=25-30 mg/kg; i.v.) and continuously supplied intravenously by means of a pentobarbital perfusor at 12-17 mg/kg/h. After tracheotomy and intubation, the animals were ventilated with oxygen by means of a respirator. A left-lateral thoracotomy was carried out in the fifth intercostal space. The lungs were retracted using sutures, the pericardium was opened and held using sutures so that the heart rocked in this. The tip of a MAP Pacing™ electrophysiology catheter (EP Technologies, Model 1675, Boston Scientific Corporation, 92257 La Garenne-Colombes Cedex, France) were then placed on the free wall of the left atrium in a right-angled position and fixed to the left atrium under constant pressure in a stand. The electrical stimulation was carried out using an external heart stimulator from Biotronik (UHS 20, Universal heart stimulator, Biotronik GmbH, 12359 Berlin, Germany).
# Measurement of the atrial effective refractory period (AERP): The electrical atrial response to the external pacemaker stimulation was visualized by means of a mono phasic action potential (MAP), which was derived from the left atrium by means of the electrophysiology catheter. A conditioning stimulation cycle of 10 base intervals (S1) in a double stimulation amplitude followed a diastolic, prematurely coupled extrastimulus (S2, 1 ms pulse duration, 200 ms refractory period), which originated during a 5 ms decrement of a coupling interval, which was 30 ms above the expected effective refractory period (AERP). The 5 mS decrement in the coupling interval of the extrastimulus ran until the atrium no longer produced any response in the form of an action potential. The longest coupling interval which was no longer able to induce any atrial action potential was used as the effective refractory period. The refractory period was in each case investigated at three basal cycle length, 240, 300 and 400 ms).
# Experimental groups: The sole action of atenolol (bolus administration of 1 mg/kg) on the refractory period was investigated in a separate group of pigs (n=5).
# [1] = basal cycle length 240 ms, atenolol 1 mg/kg bolus i.v., n = 5
# [2] = basal cycle length 300 ms, atenolol 1 mg/kg bolus i.v., n = 5
# [3] = basal cycle length 400 ms, atenolol 1 mg/kg bolus i.v., n = 5
SMILES,Increase in ms of refractory period vs. control [1],"Refractory period, mean value [1] [milliseconds]",Increase in ms of refractory period vs. control [2],"Refractory period, mean value [2] [milliseconds]",Increase in ms of refractory period vs. control [3],"Refractory period, mean value [3] [milliseconds]",Effect on the refractory period (in words),"Refractory period, mean value (basal cycle length 240 ms, Example 1 infused 3 mg/kg/h, after 1 h atenolol 1 mg/kg bolus, n = 6) [milliseconds]","Increase after Example 1 in ms (basal cycle length 240 ms, n = 6)","Refractory period, mean value (basal cycle length 300 ms, Example 1 infused 3 mg/kg/h, after 1 h atenolol 1 mg/kg bolus, n = 6) [milliseconds]","Increase after Example 1 in ms (basal cycle length 300 ms, n = 6)","Refractory period, mean value (basal cycle length 400 ms, Example 1 infused 3 mg/kg/h, after 1 h atenolol 1 mg/kg bolus, n = 6) [milliseconds]","Increase after Example 1 in ms (basal cycle length 400 ms, n = 6)"
"CC(C)NCC(O)COc1ccc(CC(N)=O)cc1 (centres unmarked) [Atenolol, atenolol, reference compound]",25* ms,136,21* ms,129,11* ms,129,,,,,,,
"CCCCS(=O)(=O)Nc1ccccc1C(=O)N[C@H](CC)c1ccc(OC)nc1 [Example 5, 2-(Butyl-1-sulfonylamino)-N-[1(R)-(6-methoxypyridin-3-yl)-propyl]benzamide]",,,,,,,increased to a stable level,,,,,,
"COc1ccc(CC(=O)NCc2ccccc2-c2ccccc2C(=O)NCCc2cccnc2)cc1 [Example 1, 2′-{[2-(4-Methoxyphenyl)acetylamino]methyl}biphenyl-2-carboxylic acid (2-pyridin-3-ylethyl)amide]",,,,,,,increased to a stable level,136,35^# ms,149.5,40.7^# ms,166.2,52.3^# ms
